pIC50: −log10 of the molar value.
How the values were obtained:
[1] = biological target: T1, Recombinant HCV polymerase (BK strain) (Hepatitis C virus genotype 1b, UniProt P26663); experiment: HCV polymerase enzyme assay (radiometric [33P]-UTP incorporation); assay type: biochemical, HCV 1b
T1 construct: Recombinant HCV polymerase (BK strain) was expressed and purified from E. coli with a 21 amino acid C-terminal deletion; His6; made in house; host or cells: E. coli
Summary of the method: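 His6-tagged BK-strain NS5B lacking 21 C-terminal residues, expressed in E. coli, at 100 nM in Tris pH 7.5 with 5 mM MgCl2 and 3% DMSO. Substrates: 125 nM biotin-U13:0.63 μg/ml PolyA, 200 nM UTP plus [33P]-UTP; 100 min at 25° C. Incorporation read by streptavidin capture; IC50 from 8-point curve.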

[2] = test system: HCV replicon cells Huh 9B; experiment: HCV replicon assay (luciferase); assay type: cell-based; settings: Hepatitis C virus, reduction of replicon level by 50% vs untreated cell control, 72 h
[3] = test system: HCV replicon cells Huh 9B; assay type: cell-based; settings: concentration reducing total cell area by 50% relative to DMSO controls; 72 h
Summary of the method: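 Huh 9B replicon cells (luciferase-ubiquitin-neomycin fusion, EMCV-IRES-driven HCV polyprotein with adaptive mutations) were seeded from a 100,000 cells/ml suspension in G418-free medium, grown 24 h, then exposed to compound (dilutions at 1% DMSO) for 72 h at 37 °C. For toxicity, methylene blue staining was read at 620 nm and TD50 derived relative to DMSO controls.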

T1 sequence (P26663 2420-2989): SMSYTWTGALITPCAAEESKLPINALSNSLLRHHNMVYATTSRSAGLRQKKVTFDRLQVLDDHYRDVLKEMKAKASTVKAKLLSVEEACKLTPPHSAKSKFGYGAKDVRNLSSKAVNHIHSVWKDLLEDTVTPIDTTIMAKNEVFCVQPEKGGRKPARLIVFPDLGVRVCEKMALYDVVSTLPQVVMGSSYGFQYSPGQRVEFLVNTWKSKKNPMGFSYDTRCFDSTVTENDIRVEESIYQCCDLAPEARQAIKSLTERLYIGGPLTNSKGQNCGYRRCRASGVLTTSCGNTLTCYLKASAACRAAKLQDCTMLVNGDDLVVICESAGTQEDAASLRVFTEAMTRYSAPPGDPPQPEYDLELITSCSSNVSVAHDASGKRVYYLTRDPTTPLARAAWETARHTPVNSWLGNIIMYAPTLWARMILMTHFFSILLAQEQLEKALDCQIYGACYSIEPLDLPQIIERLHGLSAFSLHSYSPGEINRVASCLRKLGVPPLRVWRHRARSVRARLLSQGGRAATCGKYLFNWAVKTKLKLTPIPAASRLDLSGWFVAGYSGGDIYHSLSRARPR

COCCOc1ncc(F)cc1C(=O)N[C@@H]1N=C(c2c(Cl)cc(Cl)cc2Cl)c2ccccc2NC1=O [Example 64, (R)-5-Fluoro-2-(2-methoxyethoxy)-N-(2-oxo-5-(2,4,6-trichlorophenyl)-2,3-dihydro-1H-benzo[e][1,4]diazepin-3-yl)nicotinamide]
pIC50 [1]: 5.68 | pIC50 [2]: 6.62 | Replicon Assay Value TD50 [3]: 23.452 µM

CS(=O)(=O)CCOc1ccc(Cl)cc1C(=O)NC1N=C(c2c(Cl)cc(Cl)cc2Cl)c2ccccc2NC1=O (stereo not drawn) [Example 29, 5-Chloro-2-(2-(methylsulfonyl)ethoxy)-N-(2-oxo-5-(2,4,6-trichlorophenyl)-2,3-dihydro-1H-benzo[e][1,4]diazepin-3-yl)benzamide]
pIC50 [1]: 6.13 | pIC50 [2]: 5.56 | Replicon Assay Value TD50 [3]: 15.249 µM

COCCOCCOc1ncc(F)cc1C(=O)NC1N=C(c2c(Cl)cc(Cl)cc2Cl)c2ccccc2NC1=O (stereo not drawn) [Example 37, 5-Fluoro-2-(2-(2-methoxyethoxy)ethoxy)-N-(2-oxo-5-(2,4,6-trichlorophenyl)-2,3-dihydro-1H-benzo[e][1,4]diazepin-3-yl)nicotinamide]
pIC50 [1]: 6.99 | pIC50 [2]: 6.58 | Replicon Assay Value TD50 [3]: 23.09 µM

CCOCCOc1ncc(F)cc1C(=O)NC1N=C(c2c(Cl)cc(Cl)cc2Cl)c2ccccc2NC1=O (stereo not drawn) [Example 34, 2-(2-Ethoxyethoxy)-5-fluoro-N-(2-oxo-5-(2,4,6-trichlorophenyl)-2,3-dihydro-1H-benzo[e][1,4]diazepin-3-yl)nicotinamide]
pIC50 [1]: 7.04 | pIC50 [2]: 7.85 | Replicon Assay Value TD50 [3]: 11.884 µM

CCOCCOc1ncc(F)cc1C(=O)N[C@H]1N=C(c2c(Cl)cc(Cl)cc2Cl)c2ccccc2NC1=O [Example 65, (S)-2-(2-Ethoxyethoxy)-5-fluoro-N-(2-oxo-5-(2,4,6-trichlorophenyl)-2,3-dihydro-1H-benzo[e][1,4]diazepin-3-yl)nicotinamide]
pIC50 [1]: 7.49 | pIC50 [2]: 8.32 | Replicon Assay Value TD50 [3]: 10.854 µM

COCCOc1ccc(Cl)cc1C(=O)N[C@@H]1N=C(c2c(Cl)cc(Cl)cc2Cl)c2ccccc2NC1=O [Example 60, (R)-5-Chloro-2-(2-methoxyethoxy)-N-(2-oxo-5-(2,4,6-trichlorophenyl)-2,3-dihydro-1H-benzo[e][1,4]diazepin-3-yl)benzamide]
pIC50 [1]: 4.56 | pIC50 [2]: 6.10 | Replicon Assay Value TD50 [3]: >25 µM

CC(C)COCCOc1ccc(Cl)cc1C(=O)NC1N=C(c2c(Cl)cc(Cl)cc2Cl)c2ccccc2NC1=O (stereo not drawn) [Example 6, 5-Chloro-2-(2-isobutoxyethoxy)-N-(2-oxo-5-(2,4,6-trichlorophenyl)-2,3-dihydro-1H-benzo[e][1,4]diazepin-3-yl)benzamide]
pIC50 [1]: 6.15 | pIC50 [2]: 6.07 | Replicon Assay Value TD50 [3]: 10.604 µM

CO[C@@H](C)COc1ncc(F)cc1C(=O)NC1N=C(c2c(Cl)cc(Cl)cc2Cl)c2ccccc2NC1=O (stereo partly drawn) [Example 35, 5-Fluoro-2-((S)-2-methoxypropoxy)-N-(2-oxo-5-(2,4,6-trichlorophenyl)-2,3-dihydro-1H-benzo[e][1,4]diazepin-3-yl)nicotinamide]
pIC50 [1]: 7.05 | pIC50 [2]: 6.73 | Replicon Assay Value TD50 [3]: 24.614 µM

CCOCCCOc1ncc(F)cc1C(=O)NC1N=C(c2c(Cl)cc(Cl)cc2Cl)c2ccccc2NC1=O (stereo not drawn) [Example 39, 2-(3-Ethoxypropoxy)-5-fluoro-N-(2-oxo-5-(2,4,6-trichlorophenyl)-2,3-dihydro-1H-benzo[e][1,4]diazepin-3-yl)nicotinamide]
pIC50 [1]: 7.02 | pIC50 [2]: 7.18 | Replicon Assay Value TD50 [3]: 11.83 µM

CCOCCN(CC)c1ncc(F)cc1C(=O)NC1N=C(c2c(Cl)cc(Cl)cc2Cl)c2ccccc2NC1=O (stereo not drawn) [Example 45, 2-((2-Ethoxyethyl)(ethyl)amino)-5-fluoro-N-(2-oxo-5-(2,4,6-trichlorophenyl)-2,3-dihydro-1H-benzo[e][1,4]diazepin-3-yl)nicotinamide]
pIC50 [1]: 6.75 | pIC50 [2]: 6.12 | Replicon Assay Value TD50 [3]: 18.864 µM

CCOc1cc(Cl)cc(Cl)c1C1=N[C@H](NC(=O)c2cc(F)ccc2OCCOC)C(=O)Nc2ccccc21 [Example 69, (S)—N-(5-(2,4-Dichloro-6-ethoxyphenyl)-2-oxo-2,3-dihydro-1H-benzo[e][1,4]diazepin-3-yl)-5-fluoro-2-(2-methoxyethoxy)benzamide]
pIC50 [1]: 7.10 | pIC50 [2]: 7.50 | Replicon Assay Value TD50 [3]: 17.731 µM

COCCN(C)c1ncc(F)cc1C(=O)NC1N=C(c2c(Cl)cc(Cl)cc2Cl)c2ccccc2NC1=O (stereo not drawn) [Example 41, 5-Fluoro-2-((2-methoxyethyl)(methyl)amino)-N-(2-oxo-5-(2,4,6-trichlorophenyl)-2,3-dihydro-1H-benzo[e][1,4]diazepin-3-yl)nicotinamide]
pIC50 [1]: 6.89 | pIC50 [2]: 7.61 | Replicon Assay Value TD50 [3]: 24.146 µM

CCOCCOCCOc1ccc(Cl)cc1C(=O)NC1N=C(c2c(Cl)cc(Cl)cc2Cl)c2ccccc2NC1=O (stereo not drawn) [Example 8, 5-Chloro-2-(2-(2-ethoxyethoxy)ethoxy)-N-(2-oxo-5-(2,4,6-trichlorophenyl)-2,3-dihydro-1H-benzo[e][1,4]diazepin-3-yl)benzamide]
pIC50 [1]: 5.97 | pIC50 [2]: 5.87 | Replicon Assay Value TD50 [3]: 11.724 µM

CC(=O)NCCCOc1ccc(Cl)cc1C(=O)NC1N=C(c2c(Cl)cc(Cl)cc2Cl)c2ccccc2NC1=O (stereo not drawn) [Example 25, 2-(3-Acetamidopropoxy)-5-chloro-N-(2-oxo-5-(2,4,6-trichlorophenyl)-2,3-dihydro-1H-benzo[e][1,4]diazepin-3-yl)benzamide]
pIC50 [1]: 6.34 | pIC50 [2]: 6.24 | Replicon Assay Value TD50 [3]: 12.774 µM

COCCOc1ncccc1C(=O)NC1N=C(c2c(Cl)cc(Cl)cc2Cl)c2ccccc2NC1=O (stereo not drawn) [Example 31, 2-(2-Methoxyethoxy)-N-(2-oxo-5-(2,4,6-trichlorophenyl)-2,3-dihydro-1H-benzo[e][1,4]diazepin-3-yl)nicotinamide]
pIC50 [1]: 6.61 | pIC50 [2]: 6.63 | Replicon Assay Value TD50 [3]: >25 µM

CCNC(=O)NCCOc1ccc(Cl)cc1C(=O)NC1N=C(c2c(Cl)cc(Cl)cc2Cl)c2ccccc2NC1=O (stereo not drawn) [Example 24, 5-Chloro-2-(2-(3-ethylureido)ethoxy)-N-(2-oxo-5-(2,4,6-trichlorophenyl)-2,3-dihydro-1H-benzo[e][1,4]diazepin-3-yl)benzamide]
pIC50 [1]: 6.55 | pIC50 [2]: 5.89 | Replicon Assay Value TD50 [3]: 11.815 µM

COCCOc1ncc(F)cc1C(=O)NC1N=C(c2c(Cl)cc(Cl)cc2Cl)c2ccccc2NC1=O (stereo not drawn) [Example 30, 5-Fluoro-2-(2-methoxyethoxy)-N-(2-oxo-5-(2,4,6-trichlorophenyl)-2,3-dihydro-1H-benzo[e][1,4]diazepin-3-yl)nicotinamide]
pIC50 [1]: 6.93 | pIC50 [2]: 7.33 | Replicon Assay Value TD50 [3]: >25 µM

CCOc1cc(Cl)cc(Cl)c1C1=NC(NC(=O)c2cc(F)ccc2OCCOC)C(=O)Nc2ccccc21 (stereo not drawn) [Example 56, N-(5-(2,4-Dichloro-6-ethoxyphenyl)-2-oxo-2,3-dihydro-1H-benzo[e][1,4]diazepin-3-yl)-5-fluoro-2-(2-methoxyethoxy)benzamide]
pIC50 [1]: 6.81 | pIC50 [2]: 7.41 | Replicon Assay Value TD50 [3]: 11.349 µM

CN(CCOCC1CC1)c1ncc(F)cc1C(=O)NC1N=C(c2c(Cl)cc(Cl)cc2Cl)c2ccccc2NC1=O (stereo not drawn) [Example 46, 2-((2-(Cyclopropylmethoxy)ethyl)(methyl)amino)-5-fluoro-N-(2-oxo-5-(2,4,6-trichlorophenyl)-2,3-dihydro-1H-benzo[e][1,4]diazepin-3-yl)nicotinamide]
pIC50 [1]: 6.78 | pIC50 [2]: 6.82 | Replicon Assay Value TD50 [3]: 15.961 µM

COCCOc1ccc(Cl)cc1C(=O)NC1N=C(c2c(Cl)cccc2Cl)c2ccccc2NC1=O (stereo not drawn) [Example 47, 5-Chloro-N-(5-(2,6-dichlorophenyl)-2-oxo-2,3-dihydro-1H-benzo[e][1,4]diazepin-3-yl)-2-(2-methoxyethoxy)benzamide]
pIC50 [1]: 6.83 | pIC50 [2]: 6.23 | Replicon Assay Value TD50 [3]: >25 µM

COCCOc1ncc(Br)cc1C(=O)NC1N=C(c2c(Cl)cc(Cl)cc2Cl)c2ccccc2NC1=O (stereo not drawn) [Example 33, 5-Bromo-2-(2-methoxyethoxy)-N-(2-oxo-5-(2,4,6-trichlorophenyl)-2,3-dihydro-1H-benzo[e][1,4]diazepin-3-yl)nicotinamide]
pIC50 [1]: 6.58 | pIC50 [2]: 6.31 | Replicon Assay Value TD50 [3]: >25 µM

CCCCOCCOc1ccc(Cl)cc1C(=O)NC1N=C(c2c(Cl)cc(Cl)cc2Cl)c2ccccc2NC1=O (stereo not drawn) [Example 10, 2-(2-Butoxyethoxy)-5-chloro-N-(2-oxo-5-(2,4,6-trichlorophenyl)-2,3-dihydro-1H-benzo[e][1,4]diazepin-3-yl)benzamide]
pIC50 [1]: 6.12 | pIC50 [2]: 6.47 | Replicon Assay Value TD50 [3]: >25 µM

CS(=O)(=O)NCCCOc1ccc(Cl)cc1C(=O)NC1N=C(c2c(Cl)cc(Cl)cc2Cl)c2ccccc2NC1=O (stereo not drawn) [Example 27, 5-Chloro-2-(3-(methylsulfonamido)propoxy)-N-(2-oxo-5-(2,4,6-trichlorophenyl)-2,3-dihydro-1H-benzo[e][1,4]diazepin-3-yl)benzamide]
pIC50 [1]: 6.08 | pIC50 [2]: 5.72 | Replicon Assay Value TD50 [3]: 13.62 µM

Source: patent US20110059043A1, “CHEMICAL COMPOUNDS” (priority 2009, published 2011)
